Laboratory results from US4760065A, “Trifluoromethyl substituted tetracyclic quinazolin-ones having tranquilizing activity” (priority 1986, dated 1988).

Columns and labels:
[1] = tested on: rats; assay: Sleep studies (sleep/wakefulness studies); format: in vivo; settings: indicative of sedation
Source text: (§1) While the racemates and individual optical isomers were indicated to have about the same level of activity in FBA tests specifically indicating tranquilizing activity, a marked difference was found between R-and S optical isomers in vivo in tests indicative of sedation. […] On the other hand, in the case of the S-isomer, the doses producing sedation effects were indicated to substantially overlap those at which tranquilizing activity was indicated. For example, in vivo tests in rats. The S-isomer of Example 9 hereinafter was indicated to have tranquilizing (anxiolytic) action in the dose range of about 2 to 15 milligrams per kilograms and mild sedation-related effects in the dose range of about 3-50 milligrams per kilogram. […] In evaluation of the optical isomers in rats to obtain the above indications, the Discrimination Test and the conflict segment (number of lickings) of Geller Conflict Test were used to evaluate tranquilizing activity. […] In the conflict test, the R-isomer was indicated to have a minimum effective dosage of 30 mg/kg. and the S-isomer a minimum effective dosage of 10 mg/kg. […] On the other hand, the S-isomer was indicated to have an ED50 between 40-50 mg/kg. in the Rotarod, Locomotion and Rearing Tests and a low minimum effective dose of 3 mg/kg. in the Sleep Studies.

[2] = tested on: rats; assay: Geller Conflict test (conflict segment); format: in vivo; settings: Rattus norvegicus; for minimal effective dose: conflict segment (number of lickings), read-out: minimum effective dosage in conflict test
Procedure: Speth et al., Life Science, 22: 859 (1978). Routine and non-substantive modifications of the Flunitrazepam Receptor Binding Assay that are evident from the following description are employed in such evaluation in which non-radioactive candidate compounds are tested for their ability to displace ^3 H-flunitrazepam binding from isolated calf brain benzodiazepine receptors. […] This suspension is made homogenous by homogenation with a Brinkmann Polytron using a rheostate setting of 8 for 10 seconds. Ten λ of ^3 H-flunitrazepam solution is diluted in 0.05M Tris buffer (pH 7.1 at 37° C.) to give a concentration of 10 nM (3.13×10^-6 mg/ml). This solution is stored frozen at -20° C., while the stock ^3 H-flunitrazepam solution in ethanol is kept refrigerated at +2° C. Periodically, the stock ethanolic ^3 H-flunitrazepam solution is examined by TLC for chemical purity. If the purity becomes <90%, the stock solution is repurified or new high purity ^3 H-flunitrazepam is obtained and the impure ^3 H-flunitrazepam discarded. A 0.1 ml portion of 10 nM ^3 H-flunitrazepam "working" solution is added to 12×75 mm borosilicate disposable test tube along with 0.1 ml of freshly prepared 10% ethanol solution. This is the control tube for measuring total binding. Non-specific binding is determined by the addition of 2×10^-5 diazepam (in 10% ethanol) to other tubes in the place of 0.1 ml 10% ethanol. The specific binding is determined in the final results by subtraction of the non-specific binding from the total binding. […] Three mg of each compound are placed in 18×150 mm borosilicate disposable test tubes. […] The ^3 H-flunitrazepam trapped on the filters is counted by liquid scintillation counting on a Beckman LS 8000 after the filters are rapidly shaken for 45 minutes in the scintillation vials with 10 ml of scintillation cocktail. Results of compounds screened are calculated by the on-line data reduction system in the Beckman LS 8000, and are expressed as a percent specifically bound compared to control. […]

[3] = Rotarod, Locomotion and Rearing Tests (indicative of sedation); format: in vivo; settings: rat, locomotion, rearing tests, rats, one value stated for the three tests
Source text: as §1

[4] = tested on: rats; assay: Discrimination Test; format: in vivo; settings: Rattus norvegicus, tranquilizing activity
Source text: as §1

[5] = tested on: rats; assay: In vivo tests in rats: dose ranges of tranquilizing action and sedation-related effects; settings: about; for dose range of sedation-related effects: mild (S-isomer) or weak-to-mild (R-isomer) effects
Source text: as §1

[6] = tested on: monkeys, rats, cats, mice; assay: Other standard CNS depressant tests (sleep studies, spinal reflex test, chemically induced convulsions test, Dunham rotarod test, variable interval segment of Geller Conflict test); format: in vivo; settings: at the doses useful as minor tranquilizers, sleep studies in monkeys and rats
[7] = target: calf brain benzodiazepine receptors (3H-Flunitrazepam binding, calf brain cortex); assay: Flunitrazepam Receptor Binding Assay, Chang et al. modification (FBA TEST No. 2); settings: read-out: IC50 in FBA test (inhibition of specific binding of 3H-Flunitrazepam)
Procedure: Substantially similar results are obtainable in a Flunitrazepam Receptor Binding Assay (FBA) as described by Chang et. al., Eur. J. Pharmacol., 48, 213 (1978): when carried out with the non-substantive modifications evident from the following description (hereinafter FBA TEST No. (2): Fresh calf brain cortex is homogenized in a 19 fold volume of Tris-HCl buffer pH 7.4, using a Brinkman Polytron PT 20 and centrifuged at 50'000 g for 10 min. The pellets are frozen at -20° C. and resuspended in a 400 fold volume of Tris-buffer pH 7.4 before use for the binding assay. The assay mixtures consist of 1.8 ml of homogenate (corresponding to 4.5 mg of original tissue), 0.1 ml [^3 H]-Flunitrazepam (final concentration 1.5 nM), and 0.1 ml of buffer for determination of total binding or 0.1 ml of unlabelled Flunitrazepam (final concentration 1 μM) for determination of nonspecific binding, respectively. To assess the potency of various drugs in inhibiting specific binding, drugs are added (instead of buffer) to give 5 to 9 different concentrations between 1 nM and 10 μM, each in duplicate. After incubation for 15 min at 0° C., the assay mixtures are rapidly filtered through Whatman GF/B filters and washed twice with 5 ml of ice cold Tris-buffer. The filters are counted in Rialuma on a LKB Rach-Beta Liquid Scintillation Counter. […]

SMILES	minimum effective dose in sleep studies (sleep/wakefulness studies) [1] [mg/kg]	minimal effective dose [2] [mg/kg]	ED50 [3] [mg/kg]	ED50 [4] [mg/kg]	dose range of sedation-related effects [5]	ED50 ([2]; po, P.O.) [mg/kg]	activity in other standard CNS depressant tests [6]	IC50 [7] [nM]	dose range of tranquilizing (anxiolytic) action [5]
O=c1c2cc(C(F)(F)F)ccc2nc2n1C[C@@H]1CCCCN21 [Example 8, (+)-10aS-7,8,9,10,10a,11-Hexahydro-2-trifluoromethyl-13H-pyrido[1,'2':3,4]imidazo[2,1b]quinazolin-13-one]	3	10	40 to 50	2.6	3-50 milligrams per kilogram	–	–	–	–
O=c1c2cc(C(F)(F)F)ccc2nc2n1CC1CCCCN21 (stereo not drawn) [Example 1, Trans(e,e)-( )-2-trifluoromethyl-7,8,9,10,10a,11-Hexahydro-13H-pyrido[1',2':3,4]-imidazo[2,1-b]-quinazolin-13-one]	–	–	–	–	–	15	only mildly active or essentially inactive	6.5	–
O=c1c2cc(C(F)(F)F)ccc2nc2n1C[C@H]1CCCCN21 [Example 5, (-)-10aR-7,8,9,10,10a,11-hexahydro-2-trifluoromethyl-13H-pyrido[1,'2':3,4]imidazo[2,1b]quinazolin-13-one]	60	30	> 120	4.2	60-120 milligrams per kilogram	–	–	–	4-40 milligrams per kilogram
